Source: patent US11844791B2, “Use of antagonists and/or inverse agonists of CB1 receptors for preparing medicaments for treating fatigue post-viral fatigue syndrome” (FUNDACION HOSPITAL NACIONAL DE PARAPÉJICOS, priority 2020, dated 2023)

Key:
[1] = tested on: human motor system (motor cortex and spinal motor neurons); experiment: Transcranial magnetic stimulation: MEP amplitude in first dorsal interosseous muscle before and 24 hours after a single Rimonabant dose; assay type: in vivo; settings: healthy subjects, 24 hours after single dose Rimonabant 20 mg; MEP at 120% RMT, FDI at rest; baseline 1.1±0.6 mV; paired T test p=0.02
Procedure: The aim of the present experiments was to use transcranial magnetic stimulation to test the effects of a single dose of 20 mg of Rimonabant on the excitability of motor cortex and of spinal motor neurons.
(§1) Neurophysiological examination was performed before and 24 hours after the administration of a single dose of 20 mg of Rimonabant.
Using transcranial magnetic stimulation (TMS), it was evaluated the thresholds for electromyographic responses in the first dorsal interosseous muscle (FDI) at rest and during voluntary contraction.
(§2) Nine healthy volunteers (mean age±S.D. 32.1±5.8 years) participated in all experiments. All the subjects gave their written informed consent.
Magnetic stimulation was performed using a high-power Magstim 200 magnetic stimulator (Magstim Co., Whitland, UK). A figure-of-eight coil with external loop diameters of 9 cm was held over the right motor cortex at the optimum scalp position to elicit motor responses in the contralateral first dorsal interosseous (FDI). The induced current flowed in a postero-anterior direction. Resting motor threshold (RMT) was defined as the minimum stimulus intensity that produced a liminal motor evoked response (about 50 μV in 50% of 10 trials) at rest. The main variables we test is the RMT and MEP amplitude before and 24 hours after the Rimonabant 20 mg. MEP amplitude was obtained at 120% RMT. […]

healthy volunteers = experiment: Tolerability and adverse effects of a single Rimonabant dose in healthy volunteers; assay type: in vivo, human; settings: single dose 20 mg
Procedure: as §1, §2
Hitherto, three subjects experienced agitation and anxiety (this effect lasted an average of 6 hours) and one suffered for nausea (for 24 hours).

[2] = as previously described; cited from earlier work

Cc1c(C(=O)NN2CCCCC2)nn(-c2ccc(Cl)cc2Cl)c1-c1ccc(Cl)cc1 [Rimonabant, N-(piperidino-1-yl)-5-(4-chlorophenyl)-1-(2,4-dichlorophenyl)-4-methylpyrazole-3-carboxamide]
MEP amplitude (motor system excitability), mean±S.D. [1]: 2.1±1.2 mV
Average duration of agitation and anxiety (healthy volunteers; healthy volunteers): 6 h
Duration of nausea (healthy volunteers; healthy volunteers): 24 h
Effects on vigilance (healthy volunteers; healthy volunteers): moderate
Subjects who experienced agitation and anxiety (healthy volunteers; of nine healthy volunteers): three
Subjects who suffered nausea (healthy volunteers; of nine healthy volunteers): one
Blood-brain barrier penetration [2]: penetrates the blood-brain barrier
